US20240360510A1, “DETECTION OF KDM1A LOSS OF ACTIVITY FOR DIAGNOSING ENDOCRINE DISORDERS” (UNIVERSITE PARIS-SACLAY, priority 2021, published 2024)

What was measured:
[1] = test system: GIPR messenger RNA levels in human pancreatic β-cells EndoC-βH1; assay: GIPR transcripts by RT-qPCR in pancreatic β-cells EndoC-βH1 after KDM1A inhibition; type: cell-based
Description: (§1) H295R cells were cultivated in DMEM/Ham's F-12 Medium supplemented with 2 mM Glutamine, 100 IU/mL Penicillin, 100 μg/mL Streptomycin, 10% Fetal Bovine Serum, 20 mM HEPES, and a mixture of Insulin (1 μM), Transferrin (5.8 mg/ml) and Selenium (60 nM). Human pancreatic β-cells EndoC-βH1 have also been used. They are cultivated as described in Ravassard P. et al^38.
(§2) Cells were incubated up to 10 days with 0.5 μM GSK-LSD1 an irreversible inhibitor of KDM1A (Sigma-Aldrich).
(§3) Transfection of siRNAs protocol was performed as follow. Briefly, H295R cells were cultivated in serum free Optimem medium (Life Technologies) for 2 hours, then incubated for 6 h with Lipofectamine RNAiMAX (2 μL/well) and 100 nM siRNA targeting KDM1A or Scrambled siRNA (Horizon). Two iterative transfections were performed at 1 and 3 days after seeding. Expression level of the studied gene was determined using reverse transcription quantitative polymerase chain reaction (RT-qPCR).
(§4) RNA extraction from cell cultures and tissue protocol and RT-qPCR protocol were as follows: DNA was extracted from frozen adrenal samples using the phenol-chloroform-isoamyl alcohol extraction method. DNA was extracted from Formalin-Fixed Paraffin-Embedded (FFPE) sample using NucleoSpin DNA FFPE XS kit (Macherey-Nagel) or from blood leucocytes using either an automated QIAsymphony platform (Qiagen) or the Flexigene DNA Kit (Qiagen). Total RNA was extracted from tissues or cells using TRIzol reagent according to the manufacturer's instructions. After DNAse I treatment (New England Biolabs), 1 μg of total RNA was reverse transcribed using the High-Capacity cDNA reverse transcription kit (Life Technologies). Samples were analyzed by RT-qPCR using the Power SYBR® Green PCR Master Mix (Life Technologies) or the TaqMan Gene Expression Assays (Life Technologies, ref. 4331182 and 4448489) and were run on a QS6 Real-Time PCR System (Life Technologies). […] Relative expression of the gene of interest was expressed as a ratio of attomoles to attomoles of housekeeper genes.

[2] = test system: GIPR expression in H295R cells; assay: GIPR messenger RNA by RT-qPCR in H295R cells after KDM1A inhibition; type: cell-based, human; settings: for GIPR messenger RNA level (RT-qPCR): GSK-LSD1 at 0.5 μM
Description: as §1, §2, §3, §4

[3] = test system: GIPR protein in H295R cells; assay: GIPR protein by immunofluorescence and automated High-throughput Microscopy in H295R cells; type: cell-based, human
Description: as §1, §2, §3
Cells were grown on a 24 well plates containing glass coverslips (14-mm diameter). After 24 h, siRNA targeting KDM1A or Scramble siRNA (100 nM) were transfected as described above. Briefly, cells were fixed with 4% paraformaldehyde and permeabilized 10 min with a 0.2% solution of Triton X100 diluted in PBS. […]
Sequential images (20×-0.40 NA lens) were acquired for each channel with the automated ArrayScan VTI imaging and analyzing platform (Thermo Fisher Scientific). The TargetActivation Algorithm (v.4) was used to detect and quantify the GIPR fluorescence as following. DAPI fluorescence was used to find the focus and was sequentially acquired with GIPR fluorescence in order to give separate image files. […] In order to quantify the amount of GIPR fluorescence (channel 2) present in the cytoplasm of the primary selected object, this nuclear mask was dilated to cover the cytoplasmic region. […] The cytoplasmic mask was lastly used to detect, select and quantify the average fluorescence of GIPR in the final population of transfected cells (n>40,000). […]

c1ccc([C@@H]2C[C@H]2NC2CCNCC2)cc1 [GSK-LSD1]
GIPR transcripts (RT-qPCR) ([1]; KDM1A siRNA and GSK-LSD1, 3 days of treatment, p=0.0113): significant increase in GIPR transcripts | GIPR transcripts (RT-qPCR) ([1]; KDM1A siRNA and GSK-LSD1, 7 days of treatment, p=0.0027): significant increase in GIPR transcripts | GIPR expression (GIPR transcripts, RT-qPCR) ([1]; KDM1A silencing and concomitant GSK-LSD1, time not given): increased GIPR expression | GIPR messenger RNA level (RT-qPCR) ([2]; seven days, p=0.0082): significant increase of GIPR expression | GIPR messenger RNA level (RT-qPCR) ([2]; three days, p=0.0069): significant increase of GIPR expression | GIPR expression, quantified by RT-qPCR ([2]; treatment with GSK-LSD1, time not given): increased GIPR expression | GIPR protein expression in the cytoplasm (automated High-throughput Microscopy) ([3]; H295R cells transfected (KDM1A siRNA) and treated (GSK-LSD1), seven days, p<0.0001, analyzed cells>40 000): increase in protein expression | GIPR expression observed by immunofluorescence ([3]; H295R cells, KDM1A siRNA transfection and concomitant pharmacological inhibition (GSK-LSD1) for seven days): significant GIPR expression | expression of GIPR protein (automated High-throughput Microscopy) ([3]; H295R cells, compared to untreated cells, analyzed cells>40 000, p<0.001): significant increased expression of GIPR protein
